From ChEMBL document CHEMBL4043188, “Structural characterization of a new steroidal saponin from Agave angustifolia var. Marginata and a preliminary investigation of its in vivo antiulcerogenic activity and in vitro membrane permeability property” (Bioorg Med Chem Lett, 2017) come the findings set out here.

Active and inactive are the calls of the source. The calls are words filed in the database; no cut-off is given here.

The test concerns Mus musculus. Description: Antiulcerogenic activity against acidified ethanol induced-gastric lesions in Swiss mouse at 100 mg/kg, po administered 1 hr prior to acidified ethanol challenge measured after 1 hr. It counts as functional, organism-based.

Consider `CO[C@]1(CC[C@@H](C)CO[C@H]2O[C@@H](CO)[C@H](O)[C@@H](O)[C@@H]2O)O[C@H]2C[C@H]3[C@@H]4CC[C@H]5C[C@@H](O[C@@H]6O[C@H](CO)[C@H](O[C@@H]7O[C@H](CO)[C@@H](O)[C@H](O[C@@H]8O[C@H](CO)[C@@H](O)[C@H](O[C@@H]9O[C@H](CO)[C@@H](O)[C@H](O)[C@H]9O)[C@H]8O)[C@H]7O[C@@H]7OC[C@@H](O[C@@H]8O[C@@H](C)[C@H](O)[C@@H](O)[C@H]8O)[C@H](O)[C@H]7O)[C@H](O)[C@H]6O)CC[C@]5(C)[C@H]4CC[C@]3(C)[C@H]2[C@@H]1C`, for which the result was Active. In the case of `C[C@@H]1CC[C@@]2(OC1)O[C@H]1C[C@H]3[C@@H]4C[C@H](O)[C@H]5C[C@@H](O[C@@H]6O[C@H](CO)[C@H](O[C@@H]7O[C@H](CO)[C@@H](O)[C@H](O[C@@H]8O[C@H](CO)[C@@H](O[C@@H]9O[C@@H](C)[C@H](O)[C@@H](O)[C@H]9O)[C@H](O)[C@H]8O)[C@H]7O[C@@H]7O[C@H](CO)[C@@H](O)[C@H](O[C@@H]8O[C@H](CO)[C@@H](O)[C@H](O)[C@H]8O)[C@H]7O)[C@H](O)[C@H]6O)CC[C@]5(C)[C@H]4CC(=O)[C@]3(C)[C@H]1[C@@H]2C`, the outcome was Active.
